Data set [1] concerns Huh7/Rep-Feo HCV replicon (HCV RNA replication). Type of data set: cell-based, Hepatitis C virus (strain HCV—N, genotype 1b). An excerpt: Development of the Huh7/Rep-Feo replicon assay. […] This replicon was derived from a chimpanzee infectious clone (strain HCV—N, genotype 1b). In this replicon, the structural genes have been replaced by a reporter gene. The chimeric reporter gene Feo encodes the firefly luciferase protein fused in-frame with neomycin phosphotransferase. This Huh7/Rep-Feo cell supports high levels of autonomous HCV RNA replication because it was derived from the HCV—N strain, which carries an adaptive mutation in NSSA that confers highlevel replication in tissue culture. Furthermore, the level of luciferase correlates well with levels of HCV RNA production, so that luciferase can be used as a reliable surrogate marker for HCV replication. The use of luciferase as a reporter permits quantitative and highthroughput detection of HCV replication levels. The specific use of firefly luciferase makes this replicon especially well-suited for automation, because the luciferase reagent can be added directly to the cell culture system prior to signal detection without the need for cell lysis, washing, or aspiration.
HCV Replicon System-Primary Screening. […] Briefly, this replicon harbors a subgenomic HCV genotype 1b sequence, fused to firefly luciferase, stably replicating under neomycin selection. Cells were propagated in Dulbecco's Modified Eagle's medium (DMEM) containing 10% fetal bovine serum (FBS) supplemented with 1% penicillin-streptomycin, and 500 μg of Geneticin (Invitrogen Corp., Carlsbad, Calif.)/mL. Cells were cultured in a 37° C., 5% CO2-humidified incubator for all experiments. To decrease day-today variability in the assay, a large homogenous population of subconfluent cells was passaged so that a similar lot of cells could be used throughout the HTS assay.
(§1) Primary Screening-HTS. Information about the library of known bioactive compounds that was screened and the general automated HTS protocol is available at http://www.broad.harvard.edu/chembio/index.html (see FIG. 10 for list of primary HTS with known bioactives library). Based on the results of optimization experiments in the 384-well plate format, the general HTS protocol was adapted as follows. Unless otherwise indicated, cells were incubated at all times in a humidified environment with 5% CO2 at 37° C. The assay was initiated by plating 30 μL of medium containing 2000 cells/well into white 384-well opaque-bottom plates (Nunc, Rochester, N.Y.) using an automated plate filler (Bio-Tek uFiller; Winsooki, Vt.) and allowing the cells to adhere for 24 hours. One hundred nL of compound stock solutions in DMSO was transferred from stock plates into the 384-well assay plates using an automated pin-based compound transfer robot (CyBio CyBi-Well vario; Woburn, Mass.). The final compound concentration in each well was estimated to be approximately 10-50 μM, with most compounds at 33 μM. The wells contained 0.33% DMSO by volume. The cells were then incubated for another 48 hours. The luminescent signal from each plate was detected using an automated plate reader (Perkin-Elmer Envision 1; Wellesley, Mass.). This screen was performed in duplicate. For negative controls, entire DMSO-treated control plates were employed, in addition to DMSO-only control wells that were incorporated into each compound assay plate. The cells were assayed for luciferase activity using the Bright-Glo Luciferase assay system (Promega), following the manufacturer's instructions. As a counter-screen, cell viability was assessed using the CellTiterGlo Luminescent cell viability assay (Promega) following the manufacturer's instructions.
Computational Data Analysis-Primary Screening. For each replicate, a mock-treatment distribution based on the total population of mock (DMSO) controls in that replicate was built (FIG. 11).

Data set [2] deals with OR6 cells harboring full-length genotype 1b HCV replicon ORN/C-5B/KE (HCV RNA replication). Briefly: microbe, parasite or virus in culture. Type of data set: cell-based, Hepatitis C virus (strain HCV—O. To be noted: for antiviral activity (in words) / proviral effect on HCV replication (in words): OR6 full-length replicon; for proviral effect on HCV replication (in words): 0.1-100 μM. An excerpt: HCV Replicon System-Secondary Assays. For validation, OR6 cells stably harboring the full-length genotype 1 replicon, ORN/C-5B/KE9 were used to examine compound activity in a more authentic viral polyprotein context. This replicon was derived from the 1B-2 strain (strain HCV—O, genotype 1b), in which the Renilla luciferase gene is introduced as a fusion protein with neomycin to facilitate the monitoring of HCV replication. This construct contains a tissue culture adaptive mutation in the NS3 region. Cells were cultured in an identical manner to the Huh7/Rep-Feo cells.
Secondary Assays-Hit Validation. Several hits from primary HTS, as well as functionally related compounds, were purchased from Sigma (St. Louis, Mo.), Calbiochem (San Diego, Calif.), and Microsource (Gaylordsville, Conn.). […] Ten mM of stock solutions of the individual compounds to be tested was prepared in the appropriate solvent (DMSO, ethanol, or H2O, according to the manufacturer's information) and stored at −20° C. Cells were seeded into 96-well plates at a density of 2000 cells/well in 100 μL of medium. The cells were incubated for 24 hours at 37° C. to obtain the optimal level of adherence. Solutions of candidate hit compounds were added to wells to achieve final concentrations of 0.1, 1, 10, 50, and 100 μM. The final concentration of DMSO or ethanol in every well was 1% or less by volume. Mock solutions were used as a negative control. PEG-IFN and ribavirin were used as positive controls at various concentrations, alone and in combination. The plates were then incubated at 37° C. with 5% CO2 for 48 hours before they were analyzed. Luminescent signal was generated using the Renilla luciferase assay kit (Promega) according to the manufacturer's instructions. Signal was then detected using a LumiCount (Packard BioScience Company) luminometer. Cell viability was assessed using CellTiter-Glo (Promega), following the manufacturer's instructions. All experiments were performed in triplicate.
Secondary Assays-Data Analysis. Values were presented as a percentage of mock treated control, which was arbitrarily set at 100%. Data were expressed as the mean (±) SD. […] Synergy calculations were performed using CalcuSyn (Biosoft; Cambridge, England).
HCV Replicon System—Secondary Assays: For replicon validation, OR6 cells stably harboring the full-length genotype 1 replicon, ORN/C-5B/KE were used (Burke J. Am. Chem. Soc. (2004) 126:14095-14104). This replicon was derived from the 1B-2 strain (strain HCV—O, genotype 1b), in which the Renilla luciferase gene is introduced as a fusion protein with the Neomycin resistance cassette to facilitate the monitoring of HCV replication. This construct contains a tissue culture adaptive mutation in the NS3 region. Cells were cultured in an identical manner to the Huh7/Rep-Feo cells.
Secondary Assays—Hit Validation: 10 mM of stock solutions of the individual compounds to be tested were prepared in DMSO and stored at −20° C. Cells were seeded into 96-well plates at a density of 2,000 cells/well in 100 μl of medium. The cells were incubated for 24 hours at 37° C. to obtain the optimal level of adherence. Solutions of candidate hit compounds were added to wells to achieve varying final concentrations between 0.01 and 100 μM. The final concentration of DMSO or ethanol in every well was 1% or less by volume. Mock solutions were used as a negative control. Peginterferon-alfa-2b (PEG-Intron; Schering Corp.; Kenilworth, N.J.) and ribavirin (Sigma; St. Louis, Mo.) were used as positive controls at various concentrations, alone and in combination. The plates were then incubated at 37° C. with 5% CO2 for 48 hours before they were analyzed. Luminescent signal was generated using the Renilla luciferase assay kit (Promega; Madison, Wis.) according to the manufacturer's instructions. Signal was then detected using a LumiCount™ (Packard BioScience Company; Downers Grove, Ill.) luminometer.
(In antiviral work, replicon cells carry a viral genome segment that copies itself.)

The subject of a further data set is Huh7/Rep-Feo cells. The experiment in a line: Primary HTS cell viability counter-screen (CellTiterGlo). Type of data set: cell-based, human. To be noted: Table 2 antiviral hits of DOS set; approximately 10-50 μM, most at 33 μM; 48 hours. The protocol: as §1
Computational Data Analysis-Primary Screening. For each replicate, a mock-treatment distribution based on the total population of mock (DMSO) controls in that replicate was built (FIG. 11). Each compound was independently assigned a sign (ie, “+” or “−”) Z-score. Z-scores are calculated by dividing each background-subtracted, compound-treated well by the global standard deviation. A global standard deviation of the background-subtracted, mock-treated wells is calculated over the entire experiment. This distribution was determined to be consistent with experimental noise observed under cell-based assay conditions. The resulting collection of continuousvalued Z-scores represents the primary data set to be used for further analysis. The composite Z-score was calculated as a vector projection of each Z-score in duplicate onto an imaginary line of perfect reproducibility. Reproducibility is the cosine of the angle between each Z-score and that imaginary line; it is dimensionless and ranges from −1 to +1. […] The primary data were analyzed using the commercial software packages Pipeline Pilot (SciTegic, San Diego, Calif.) and SpotFire (SpotFire, Inc., Somerville, Mass.). The means of the negative, DMSO-only controls were considered the zero point.
Primary Screening—HTS: Unless otherwise indicated, cells were incubated at all times in a humidified environment with 5% CO2 at 37° C. The assay was initiated by plating 30 μl of medium containing 2,000 cells/well into white 384-well opaque-bottom plates (Nunc; Rochester, N.Y.) using an automated plate filler (Bio-Tek μFiller; Winsooki, Vt.) and allowing the cells to adhere for 24 hours. 100 nl of compound stock solutions in DMSO were transferred from stock plates into the 384-well assay plates using an automated pin-based compound transfer robot (CyBio CyBi-Well vario; Woburn, Mass.). The final compound concentration in each well was estimated to be approximately 10-50 μM, with most compounds at 33 μM. The wells contained 0.33% DMSO by volume. The cells were then incubated for another 48 hours. […]

Setting [3] is: known bioactives library, approximately 10-50 μM, most at 33 μM.

SMILES strings stand for the structures. Like-named read-outs stand apart in the source and are kept apart here.

As a reminder, the inhibition is how much of the control response was suppressed. By IC50 is commonly meant the point on the concentration scale where inhibition reaches its midpoint.

In the case of `CC(C)c1c(C(=O)Nc2ccccc2)c(-c2ccccc2)c(-c2ccc(F)cc2)n1CC[C@@H](O)C[C@@H](O)CC(=O)O` [Atorvastatin, atorvastatin, reference compound], the “primary screen hit result (in words)” value in data set [1] is recorded as “Antiviral”. Also, in data set [2] (48 hours), the “antiviral activity (in words)” value is on record as “strong antiviral effects”. Consider `COc1ccc(O[C@H]2C=C[C@@H](c3ccccc3)O[C@@H]2CO/N=C2/[C@H]3CCn4c(=O)n(-c5ccccc5)c(=O)n4[C@H]3[C@H](O)[C@@H]3O[C@H]23)cc1` [BUCMLD-B10A1], for which, in data set [1] (Table 2 antiviral hits of DOS set, approximately 10-50 μM, most at 33 μM, 48 hours), the “R-CompZ, compositeZ score for reporter gene assay” value is recorded as −4.4774. Further, the “C-CompZ, compositeZ score for cell viability assay” value in the data set on Huh7/Rep-Feo cells is recorded as −1.5319. With `CC[C@H](C)C(=O)O[C@H]1C[C@@H](C)C=C2C=C[C@H](C)[C@H](CC[C@@H]3C[C@@H](O)CC(=O)O3)[C@H]21` [Lovastatin, lovastatin], the “antiviral activity (in words)” value in data set [2] (48 hours) is recorded as “weakly inhibitory”.

With `CC(C)C[C@H](NC(=O)OCC1c2ccccc2-c2ccccc21)C(=O)O` [N-(9-fluorenylmethoxycarbonyl)-L-leucine, reference compound], the “primary screen hit result (in words)” value is reported as “proviral hit” in data set [1] (setting [3]) and “Proviral” in data set [1] (known bioactives library, approximately 10-50 μM, most at 33 μM, listed as N-9-fluorenylmethoxycarbonyl-L-leucine). The “proviral effect on HCV replication (in words)” value (from here on “proviral effect”) in data set [2] (48 hours) was “mild proviral activity”. In the case of `CC[C@H](C)C(=O)O[C@H]1C[C@H](O)C=C2C=C[C@H](C)[C@H](CC[C@@H](O)C[C@@H](O)CC(=O)O)[C@H]21` [Pravastatin, pravastatin], the inhibition at 100 µM in data set [2] (Hepatitis C virus, OR6, read-out: inhibition of HCV replication) is 30%. On to `Oc1ccc(-c2nc(-c3ccc(F)cc3)c(-c3ccncc3)[nH]2)cc1` [SB 202109, reference compound], for which, in data set [1] (setting [3]), the “primary screen hit result (in words)” value was “inactive”. Besides, in data set [2] (48 hours), the “antiviral activity (in words)” value was “inactive”. In the case of `O=C1C2C=C(I)C(CC2OCCCCO)[C@@]12CCCO2` (stereo partly drawn) [SM_A12B3], the “antiviral activity (in words)” value in data set [2] (48 hours) is reported as “negligible antiviral activity”.

Consider `C[C@]12C=CC(=O)C=C1CC[C@H]1[C@@H]3C[C@@H](O)[C@](O)(C(=O)CO)[C@@]3(C)C[C@H](O)[C@@]12F` [Triamcinolone, triamcinolone, reference compound], for which, in data set [1], the “primary screen hit result (in words)” value is “Proviral”. Besides, in data set [2] (48 hours), the “proviral effect” value is reported as “confirmed to increase HCV replication”. `CC(C)C1COc2cc3oc(=O)ccc3cc2O1` (stereo not drawn) [dihydrobliquin, reference compound]: in data set [1] (setting [3]), the “primary screen hit result (in words)” value is recorded as “Proviral”.

Turning to `CC(C)(O)[C@@H]1Cc2cc3ccc(=O)oc3cc2O1` [marmesin, reference compound], the “primary screen hit result (in words)” value in data set [1] (setting [3]) is “Proviral”.

Turning to `C[C@]12C=CC(=O)C=C1CC[C@@H]1[C@@H]2[C@@H](O)C[C@@]2(C)[C@H]1CC[C@]2(O)C(=O)CO` [prednisolone], the “proviral effect” value in data set [2] (48 hours) was “increased HCV replication”. Turning to `CC(C)NCC(O)COc1cccc2ccccc12` (stereo not drawn) [propranolol, reference compound], the “primary screen hit result (in words)” value in data set [1] was “Antiviral”. Regarding `NC(=O)c1ncn([C@@H]2O[C@H](CO)[C@@H](O)[C@H]2O)n1` [ribavirin], the IC50 in data set [2] (Hepatitis C virus, OR6, 48 h, read-out: IC50 (HCV RNA replication, luciferase), OR6 full-length genotype 1b replicon, 48 hours) fell in the range of 50 to 100 µM. On to `COc1ccc(CCN(C)CCCC(C#N)(c2ccc(OC)c(OC)c2)C(C)C)cc1OC` (stereo not drawn) [verapamil], for which, in data set [2] (48 hours), the “antiviral activity (in words)” value was “did not exhibit antiviral activity”. On to `CC1(C)C=Cc2cc3ccc(=O)oc3cc2O1` [xanthylentin, reference compound], for which, in data set [1] (setting [3]), the “primary screen hit result (in words)” value was “Proviral”.

Values taken from US20120094939A1, “ANTI-VIRAL COMPOUNDS, COMPOSITIONS AND METHODS” (priority 2007, published 2012).
